In paper PMC11272821, “Mechanistic safety assessment via multi-omic characterisation of systemic pathway perturbations following in vivo MAT2A inhibition” (Archives of Toxicology, 2024):

Tested on: rat liver proteome
Assay: Liver label-free quantitative proteomics
Format: in vivo
Conditions: liver protein
Method: Liver tissue were homogenized in PreOmics iST buffer (PreOmics) using a bead ruptor. […] Peptides were purified using PreOmics iST cartridges and vacuum-centrifuged to dryness. Peptides were subsequently reconstituted in 2 vol% ACN and 0.1 vol% formic acid for single-run LC–MS analysis. Peptides were analyzed using a Thermo EASY-nLC1200 coupled online to an Exploris 480 Mass Spectrometer equipped with a Nanospray Flex Ion Source integrated with a column oven (PRSO-V1, Sonation) and a FAIMS unit. Peptides were separated using a nonlinear gradient and analyzed by acquiring spectra through Data Independent Acquisition (DIA). Data was analyzed using Spectronaut V15.7.2 (Biognosys AG) direct DIA analysis using an isoform Rat database (UniProt downloaded 22.02.2021) consisting of 9,746 protein entries utilizing the Pulsar search engine. Analysis settings were maintained to factory settings and identification was set to 1% false discovery rate (FDR) for precursor and protein level. Additional information is provided in Supplementary M&M.
Data analysis was performed using R Statistical Software (version 4.3.0). Proteomics, transcriptomics and metabolomics expression changes were visualised using heatmaps showing log2 fold change relative to control. In the heatmaps missing values were highlighted in grey.
Proteomics Analysis. Liver tissue was placed in vials containing 1.4 mm zirconia beads and taken up in 500 µL of PreOmics iST buffer (PreOmics). In a cold room set to 4 °C, tissues were homogenized utilizing a bead Ruptor 12 by shaking for 30 seconds for a total of 5 times using ‘high’ setting. Lysate was normalized using BCA assay (Thermo Fisher Scientific), and subsequently incubated at 95 °C for 10 min for reduction, and alkylation of proteins. A total of 50 μg from each sample was subjected to enzymatic cleavage for 3 h by adding equal amounts of endoproteinase Lys-C and trypsin (ThermoFisher Scientific, # A40009) in a 1:50 (wt/wt) enzyme:protein ratio. De-salting and purification were performed according to the PreOmics iST protocol on a styrene divinylbenzene reversed-phase sulfonate sorbent. Purified peptides were vacuum-centrifuged to dryness and reconstituted in double-distilled water with 2 vol% ACN and 0.1 vol% formic acid (FA) for single-run LC-MS analysis.
Peptides were loaded onto a ReproSil-Pur 120 C18AQ 1.9 µm in-house packed to a 5 µm tip 75u ID × 360u × 50 cm column using Thermo EASY-nLC 1200 coupled online to an Exploris 480 Mass Spectrometer equipped with a Nanospray Flex Ion Source integrated with a column oven (PRSO-V1, Sonation) maintained at 50 °C. Peptides were separated using a nonlinear gradient: Mobile phase A was 0.1 vol% FA and 3 vol% acetonitrile (ACN) in water, Mobile phase B was 90 vol% ACN and 0.1 vol % FA. The gradient was operated at 250 nL/min flowing 3 vol% B for 3 min, 3 to 5 vol% B over 3 min, 5 to 17 vol % B over 120 min, 17 to 24 vol % B over 26 min, 24 to 30 vol% B over 14 min, 30 to 85 vol% B over 3 min.

Structure (SMILES): Cn1cc2cc(-c3cc4[nH]nc(C5CC5)c4n(-c4ccc(OC(F)F)cc4)c3=O)ccc2n1 [AZ’9567]
- Hexa Log2FC (10mg/kg): -0.7
- Hfe Log2FC (10mg/kg): 1.0
- Hmgcs1 Log2FC (10mg/kg): 1.1
- Hmgn2 Log2FC (10mg/kg): 1.0
- Hnrnpa1 Log2FC (10mg/kg): 1.1
- Hsd17b7 Log2FC (10mg/kg): 0.6
- Idi1 Log2FC (10mg/kg): 0.9
- Igf1 Log2FC (10mg/kg): -1.2
- Kalrn Log2FC (10mg/kg): 0.6
- Lipa Log2FC (10mg/kg): -0.8
- Lrrc8d Log2FC (10mg/kg): 1.0
- Lyrm2 Log2FC (10mg/kg): 0.9
- Mat2a Log2FC (10mg/kg): 0.7
- Mat2b Log2FC (10mg/kg): -2.4
- Me1 Log2FC (10mg/kg): -1.5
- Mettl7b Log2FC (10mg/kg): -0.8
- Mettl26 Log2FC (10mg/kg): -1.6
- Minpp1 Log2FC (10mg/kg): 1.1
- Mospd1 Log2FC (10mg/kg): -0.7
- Mt1 Log2FC (10mg/kg): 5.3
- Mtr Log2FC (10mg/kg): 1.1
- Mybbp1a Log2FC (10mg/kg): 1.1
- Ncl Log2FC (10mg/kg): 0.8
- Nob1 Log2FC (10mg/kg): 0.8
- Orm1 Log2FC (10mg/kg): 1.2
- Paics Log2FC (10mg/kg): 0.8
- Pcyt1a Log2FC (10mg/kg): 0.6
- Pklr.1 Log2FC (10mg/kg): -0.7
- Prmt1 Log2FC (10mg/kg): 0.9
- Pspc1 Log2FC (10mg/kg): 0.8
- Ptprs Log2FC (10mg/kg): -1.3
- Pum3 Log2FC (10mg/kg): 0.9
- Rbm3 Log2FC (10mg/kg): 1.0
- Rgn Log2FC (10mg/kg): -0.6
- Rmdn1 Log2FC (10mg/kg): 0.7
- S1pr1 Log2FC (10mg/kg): -0.6
- Scd1 Log2FC (10mg/kg): -1.8
- Sh3glb1 Log2FC (10mg/kg): 0.6
- Sirt2 Log2FC (10mg/kg): 0.9
- Slc6a13 Log2FC (10mg/kg): -1.3
- Slc39a4 Log2FC (10mg/kg): -2.2
- Sqle Log2FC (10mg/kg): 0.6
- Srebf1 Log2FC (10mg/kg): 1.2
- Sts Log2FC (10mg/kg): -0.7
- Tat Log2FC (10mg/kg): -1.7
- Tceanc2 Log2FC (10mg/kg): 1.4
- Thg1l Log2FC (10mg/kg): 1
- Tpmt Log2FC (10mg/kg): -1.2
- Tspo Log2FC (10mg/kg): 2
- Txnrd2 Log2FC (10mg/kg): -0.7
- Ube2f Log2FC (10mg/kg): 0.9
- Ugt2b1 Log2FC (10mg/kg): -1.6
- Wdr45 Log2FC (10mg/kg): -0.9
- Ythdc1 Log2FC (10mg/kg): 0.7
- A2m Log2FC (30mg/kg): 3.7
- Abcb1 Log2FC (30mg/kg): 2
- Abhd1 Log2FC (30mg/kg): -1.5
- Acaca Log2FC (30mg/kg): -1.2
- Acbd4 Log2FC (30mg/kg): -0.6
- Acly Log2FC (30mg/kg): -0.9
- Acsl1 Log2FC (30mg/kg): -0.8
- Acsl3 Log2FC (30mg/kg): -0.9
- Acsl5 Log2FC (30mg/kg): -0.6
- Acsm2 Log2FC (30mg/kg): 1.4
- Akap5 Log2FC (30mg/kg): -1.1
- Aldh1a1 Log2FC (30mg/kg): 2.0
- Aldh1a7 Log2FC (30mg/kg): 1.7
- Aldh16a1 Log2FC (30mg/kg): -0.5
- Alpl Log2FC (30mg/kg): 1.8
- Als2 Log2FC (30mg/kg): -1.1
- Anpep Log2FC (30mg/kg): 1.4
- Aox1 Log2FC (30mg/kg): -1.2
- Apeh Log2FC (30mg/kg): -0.7
- Apoc1 Log2FC (30mg/kg): -1.1
- Aqp8 Log2FC (30mg/kg): 1.0
- Asns Log2FC (30mg/kg): 1.0
- Baat Log2FC (30mg/kg): -0.9
- Banf1 Log2FC (30mg/kg): 0.9
- Bhmt2 Log2FC (30mg/kg): 1.1
- Bhmt Log2FC (30mg/kg): 1.8
- Brix1 Log2FC (30mg/kg): 0.9
- Ca5a Log2FC (30mg/kg): 0.9
- Carnmt1 Log2FC (30mg/kg): -1.3
- Cbs Log2FC (30mg/kg): -2.8
- Ccnd1 Log2FC (30mg/kg): 16.3
- Cdh1 Log2FC (30mg/kg): 0.8
- Cdo1 Log2FC (30mg/kg): -4.1
- Ces2c Log2FC (30mg/kg): 1.7
